Experimental data taken from publication PMC11540844, “Enhancing transcription–replication conflict targets ecDNA-positive cancers” (Nature, 2024).
Like-named read-outs stand apart in the source and are kept apart here.

Key:
[1] = test system: pRNAPII S2/S4 in COLO320DM and COLO320HSR cells; assay: Active RNA polymerase II IF; format: cell-based, human; conditions: triptolide treatment
Description: (§1) Coverslips were coated with 100 µg ml^−^1 poly-L-lysine overnight or 10 µg ml^−^1 laminin for 1 h at 37 °C before seeding cells. Asynchronized cells were seeded onto slides and subject to different treatment. Where indicated, EdU was added to each well at 10 µg ml^−^1 30 min before collecting samples. IF and dual-IF DNA FISH staining were performed as described before. Briefly, slides were fixed with ice-cold 4% paraformaldehyde (PFA) for 15 min, followed by permeabilization with 0.5% Triton X-100 in PBS for 15 min at room temperature. Samples were blocked with 3% BSA in PBS for 1 h at room temperature before incubation with primary antibody diluted in blocking buffer at 4 °C overnight. Dilution ratio for first antibodies was as follows: γH2Ax, 1:500; pRPA2-S33, 1:1,000; pCHK1S345, 1:250; 53BP1, 1:500; cyclin A, 1:100; pRNAPII S2/S4, 1:1,000. […]
(§2) Image analysis and quantification were performed using the open-source software CellProfiler (v.4.2.1). For foci number analysis, DAPI staining, IF staining and DNA FISH channel were analysed through automatic thresholding and segmentation to cell nuclei, pRPA2S33/γH2AX foci and DNA FISH foci respectively. […] For fluorescence intensity measurement, nuclei were called based on DAPI channel through automatic thresholding and segmentation; mean fluorescence intensity was retrieved by measuring mean fluorescence intensity within each nucleus.

[2] = test system: ssDNA on ecDNA amplicon in COLO320DM and COLO320HSR cells; assay: KAS-seq (ssDNA mapping); format: cell-based, human; conditions: triptolide treatment
Description: KAS-seq experiments were carried out as previously described[12] with modifications. Briefly, cell culture media was supplemented with 5 mM N3-kethoxal (final concentration), and cells were incubated for 10 min at 37 °C in a six-well plate. Genomic DNA was then extracted using the Monarch gDNA Purification Kit (NEB T3010S) following the standard protocol but with elution using 50 µl 25 mM K3BO3 at pH 7.0. Click reaction was carried out by mixing 87.5 µl purified DNA, 2.5 µl 20 mM DBCO-PEG4-biotin (dimethylsulfoxide (DMSO) solution, Sigma, catalogue no. 760749) and 10 µl 10× PBS in a final volume of 100 µl. The reaction was then incubated at 37 °C for 90 min. DNA was purified using AMPure XP beads by adding 50 µl beads per 100 µl reaction, washing beads on a magnetic stand twice with 80% EtOH and eluting in 130 µl 25 mM K3BO3. Purified DNA was then sheared using a Covaris E220 instrument down to around 200–400 bp size. […]
Libraries were sequenced in a paired-end format on an Illumina NextSeq instrument using NextSeq 550 High-Output Kits (2 × 36 cycles). […] Duplicate reads were removed using picard-tools (v.1.99). […]

[3] = test system: pRPA2-S33 foci in COLO320DM cells; assay: pRPA2-S33 IF (replication stress); format: cell-based, human
Description: as §1, §2

[4] = test system: pRPA2-S33 foci in COLO320HSR cells; assay: pRPA2-S33 IF (replication stress); format: cell-based, human
Description: as §1, §2

[5] = test system: RS on HSR in GBM39HSR cells; assay: pRPA2-S33 IF combined with EGFR FISH; format: cell-based, human
Description: as §1, §2

[6] = test system: RS on ecDNA in GBM39ec cells; assay: pRPA2-S33 IF combined with EGFR FISH; format: cell-based, human
Description: as §1, §2

[7] = test system: COLO320DM cells; assay: Cell viability / CTG proliferation (CellTiter-Glo); format: cell-based, human; conditions: for IC50: Homo sapiens, COLO 320DM
Description: (§3) Cell viability assay was performed using CellTiter-Glo (Promega, catalgoue no. G8461) as previously described. Briefly, cells were seeded into a 384-well plate one day before adding inhibitors. Equal volumes of vehicles or drugs diluted at indicated concentration were added into each well the next day, and the cells were incubated for three days. On the third day, after equilibrating plate and CellTiter-Glo reagent at room temperature for 30 min, reagent was added into each well and incubated for 15 min at room temperature. Luminescence was measured using a Synergy 2 microplate reader. Four biological replicates were performed for each condition. Data analysis was performed with GraphPad Prism (v.9.1.0).

[8] = test system: COLO320HSR cells; assay: Cell viability / CTG proliferation (CellTiter-Glo); format: cell-based, human; conditions: Homo sapiens, COLO-320-HSR; Extended Data Fig. 8
Description: as §3

[9] = test system: SNU16 cells; assay: Cell viability (CellTiter-Glo); format: cell-based, human; conditions: Homo sapiens, SNU-16; Extended Data Fig. 8; read-out: IC50 SNU16
Description: as §3, with “(v.9.1.0). […]” for “(v.9.1.0).”

[10] = test system: GBM39HSR cells; assay: Cell viability (CellTiter-Glo); format: cell-based, human; conditions: Homo sapiens; Extended Data Fig. 8
Description: as §3

[11] = test system: GBM39ec cells; assay: Cell viability (CellTiter-Glo); format: cell-based, human; conditions: Homo sapiens; Extended Data Fig. 8
Description: as §3

[12] = test system: pCHK1-S345 in HT29 cells; assay: AlphaLISA SureFire Ultra p-CHK1 (Ser345) assay in HT29 cells; format: cell-based; conditions: Homo sapiens, HT-29, 16 h, read-out: CHK1 cellular potency AlphaLisa (IC50)
Description: Compound activity in cells was measured using an AlphaLISA SureFire Ultra p-CHK1 (Ser345) assay (Perkin Elmer, catalogue no. ALSU-PCHK1-A10K). HT29 cells were cultured in McCoy 5 A medium with 10% FBS and 1% penicillin-streptomycin and seeded to 96-well plates (Corning, catalogue no. 3599). Compounds were serially diluted in DMSO over a 10-point dose range with 3-fold dilution, and compound solution was added to each well containing cells. Plates were centrifuged at 1,000 rpm for 30 s. Plates were incubated at 37 °C for 16 h. Supernatant was removed by flicking the plate against a paper towel. Wells were washed once with PBS solution. To each well was added freshly prepared lysis buffer and plates were agitated on a plate shaker at 400 rpm for 30 min. The 96-well cell plates were centrifuged at 1,500 rpm for 1 min. From each well was transferred 10 µl of the lysates to a 384-well Optiplate (Perkin Elmer, catalogue no. 6007290). To each well was added Acceptor Mix (5 µl) and the plates were sealed and wrapped in foil. Plates were agitated on a plate shaker for 2 min, then incubated at room temperature for 1 h. To each well was added Donor Mix (5 µl) and the plates were sealed and wrapped in foil. Plates were agitated on a plate shaker for 2 min, then incubated at room temperature for 1 h. AlphaLisa signal was read on an EnVision multimode plate reader (Perkin Elmer). […]

[13] = test system: γH2AX in COLO320DM and COLO320HSR cells; assay: γH2AX IF combined with EdU labelling; format: cell-based, human; conditions: XL413 combined with CHIR-124
Description: as §1, §2

[14] = Extended Data Fig. 8, read-out: IC50 COLO320DM

CC(C)[C@]12O[C@H]1[C@@H]1O[C@]13[C@]1(O[C@H]1C[C@H]1C4=C(CC[C@@]13C)C(=O)OC4)[C@@H]2O [triptolide]
transcriptional activity (active RNA polymerase II by IF) [1]: significantly decreased | ssDNA signals across the ecDNA amplicon (KAS-seq) [2]: drastic reduction | pRPA2-S33 foci [3]: significantly decreased | pRPA2-S33 foci [4]: negligible effect | RS on HSR (pRPA2-S33 IF and EGFR FISH) [5]: no obvious difference | RS on ecDNA (pRPA2-S33 IF and EGFR FISH) [6]: significantly decreased

COc1cccc(OCCCN)c1-c1cc(Nc2cnc(C#N)cn2)n[nH]1 [Ly2606368]
IC50 [7, 14]: 0.0341 µM | IC50 [8]: 0.0781 µM | IC50 [9]: 0.00848 µM | IC50 [10]: 0.0661 µM | IC50 [11]: 0.0488 µM

COc1cc2nc(-c3cc(F)ccc3O)nc(N[C@@H]3CNC[C@H]3C(C)(C)O)c2cc1OC [CCT241533]
differential inhibitory effect between ecDNA+ and ecDNA− isogenic cell lines ([7]; COLO320DM vs COLO320HSR viability, Extended Data Fig. 8a): no differential inhibitory effect | IC50 [7, 14]: 3.73 µM | IC50 [8]: 4.89 µM

N#Cc1cnc(Nc2cc(NC[C@H]3CNCCO3)c(C(F)(F)F)cn2)cn1 [SRA737]
IC50 [12]: 1.5 µM | IC50 ([7]; COLO320DM cells, read-out: CTG proliferation ecDNA+ (IC50)): 1.01 µM | IC50 [7, 14]: 1.11 µM | IC50 [8]: 24.7 µM

O=c1[nH]c(C2CCCN2)nc2c1oc1ccc(Cl)cc12 (stereo not shown) [XL413]
effect on DNA damage induced by CHK1i (γH2AX IF) [13]: partially blocked
